Laboratory results: PMC6020091 (Chemistry Central Journal, 2018)

Key:
[1] = biological target: T1, AChE (acetylcholinesterase) (Electrophorus electricus, UniProt O42275); assay: colorimetric hydroxamic acid/FeCl3 assay of remaining ACh (Bonting and Featherstone), enzyme kinetics with Lineweaver-Burk plot; format: biochemical
[2] = biological target: T1, AChE (acetylcholinesterase); assay: colorimetric hydroxamic acid/FeCl3 assay of remaining ACh (Bonting and Featherstone), non-linear regression; format: biochemical

T1 sequence (O42275 24-633 limits assumed): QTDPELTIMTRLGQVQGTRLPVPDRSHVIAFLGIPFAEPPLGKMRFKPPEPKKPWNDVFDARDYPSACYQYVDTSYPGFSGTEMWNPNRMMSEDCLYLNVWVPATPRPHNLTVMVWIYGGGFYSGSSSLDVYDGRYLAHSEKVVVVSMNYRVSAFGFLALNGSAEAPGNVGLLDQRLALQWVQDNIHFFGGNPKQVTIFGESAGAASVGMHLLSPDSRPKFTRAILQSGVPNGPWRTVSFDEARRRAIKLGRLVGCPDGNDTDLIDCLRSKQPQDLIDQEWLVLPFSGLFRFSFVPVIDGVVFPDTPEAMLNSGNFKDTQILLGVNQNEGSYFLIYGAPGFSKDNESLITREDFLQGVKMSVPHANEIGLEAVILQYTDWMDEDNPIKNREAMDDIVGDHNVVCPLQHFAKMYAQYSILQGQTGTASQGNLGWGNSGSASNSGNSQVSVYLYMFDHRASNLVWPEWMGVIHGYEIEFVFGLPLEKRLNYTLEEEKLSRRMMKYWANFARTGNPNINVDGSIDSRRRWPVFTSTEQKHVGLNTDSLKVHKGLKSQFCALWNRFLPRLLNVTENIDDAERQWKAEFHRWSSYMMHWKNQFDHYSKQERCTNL

| SMILES | Ki [1] | Ki [2] |
| --- | --- | --- |
| COc1ccc(CCN2C(=O)c3ccccc3C2=O)cc1OC [compound 1] | 330 to 930 µM |  |
| CN(C)C(=O)Oc1cccc([N+](C)(C)C)c1 [neostigmine] |  | 93 to 157 µM |
